Reference: patent US11590108B2, “Pharmaceutical compositions for combination therapy” (Genfit, priority 2017, dated 2023)
Where two headings read alike, the source gives them in different places.

What was measured:
[1] = cited from earlier work
[2] = tested on: TGFβ1-induced hHSC; test: α-SMA ELISA in TGFβ1-activated human primary hepatic stellate cells (in vitro model of hepatic fibrogenesis); assay type: cell-based
Method: Serum-deprived HSC were preincubated for 1 hour with Elafibranor (A), Cenicriviroc (B), or Bezafibrate (PPAR pan α/γ/δ) before the activation with the profibrogenic cytokine TGFβ1 (1 ng/ml).
After 48 hours of incubation, the expression of α-SMA was measured by ELISA.
The obtained values were transformed into percentage inhibition over TGFβ1 control. Data are presented as mean (quadruplicates)±standard deviation (SD). Statistical analyses were performed by one-way ANOVA followed by Bonferroni post-hoc tests, using Sigma Plot 11.0 software. [*: p<0.05; **: p<0.01; ***: p<0.001 (comparison versus TGFβ1 1 ng/mL group)]. The curve fitting and the calculation of half maximal inhibitory concentration (IC50) were performed with XLFit software 5.3.1.3.
The human primary hepatic stellate cells (hHSC; Innoprot) were cultured in STeCM medium (ScienCell cat #5301) that was supplemented with 2% fetal bovine serum (FBS, ScienCell cat #0010), 1% penicillin/streptomycin (ScienCell cat #0503) and stellate cell growth supplement (SteCGS; ScienCell cat #5352). Cell-culture flasks were coated with Poly-L Lysine (Sigma cat #P4707) for a better adherence.
For these experiments, a checkerboard matrix was generated. […]
The level of α-SMA was measured using a Sandwich ELISA. […]

[3] = tested on: CDFF-fed mice; test: Chronic CDFF diet fibrosing NASH mouse model (8 weeks); assay type: in vivo, C57Bl/6J mice; details: Elafibranor 3 mg/kg/day, CVC 10 mg/kg/day or both
Method: The preventive effects of Elafibranor alone, CVC alone and their combination were assessed in a fibrosing NASH model of mice fed a CDAA+2% cholesterol+30% Milk fat diet and High Fructose Corn Syrup 55 (55% fructose/45% glucose for a final concentration of 42 g/L) in drinking water (Mells et al J Nutr Biochem 2015). 5-6 weeks old male C57Bl/6J mice were fed a control (CSAA) diet (n=4), CDFF diet (n=12), or CDFF diet supplemented with Elafibranor 3 mg/kg/day, CVC 10 mg/kg/day or combined drugs (Elafibranor 3 mg/kg/day combined to CVC 10 mg/kg/day) (n=8 per group) for 8 weeks.
The body weight, the food and water intake were monitored twice per week. On the last day of treatment, plasma samples were obtained from retro-orbital blood sampling and mice were sacrificed after a 6 h-fasting period. The liver was rapidly excised for biochemical and histological analyses. All animal procedures were performed according to standard protocols and in accordance with the standard recommendations for the proper care and use of laboratory animals.
A technician blinded to the source of each liver specimen performed histological examinations. Virtual slides were generated using the Pannoramic 250 scanner from 3D Histech. For each animal, a score summarizing the main histological lesions of NASH was attributed according to the NASH Clinical Research Network (Kleiner 2005, Brunt 1999). Briefly, steatosis, lobular inflammation and hepatocyte ballooning were scored. The NAFLD Activity Score (NAS score) was established for each individual as the unweighted sum of the steatosis (0-3), lobular inflammation (0-3) and the ballooning (0-2) injury grading.
Alanine aminotransferase (ALT) and aspartate aminotransferase (AST) concentrations were measured in plasma using the Randox kit for Daytona automate (Randox cat #AL 3801 and AS 3804, respectively). Plasma cytokeratin 18-M30, a surrogate marker of apoptosis, was measured using the Mouse Cytokeratin 18-M30 ELISA Kit (CUSABIO cat #CSB-E14265m), according to the manufacturer's recommendations. […]
Quantitative PCR was then carried out using the CFX96 Touch™ Real-Time PCR Detection System (Biorad). […]
Expression levels were normalized using the expression of GAPDH gene as a housekeeping gene of reference in samples. […] Expression levels were determined using the standard curve equation for both the housekeeping gene and the target gene (taking into account the specific PCR efficiency of each target gene).
To achieve this aim, NASH was induced by feeding C57Bl/6J mice with a choline-deficient L-amino-acid-defined-diet supplemented with 2% cholesterol and 30% milk fat, and high fructose corn syrup in drinking water (CDFF diet). […] NASH development was evaluated by histology, liver function tests, and biochemical and molecular analyses.

[4] = tested on: NASH with liver fibrosis; details: cited from earlier work
[5] = CVC 150 mg orally once daily, one year

SMILES	solubility ([1]; 99.5% ethanol)	solubility ([1]; acetonitrile, 1-octanol, tetrahydrofuran)	solubility ([1]; aqueous solution at pH 3)	solubility ([1]; aqueous solution from pH 1 to 2)	solubility ([1]; aqueous solution from pH 4 to 13 and in water)	solubility ([1]; ethyl acetate and diethylether)	solubility ([1]; glacial acetic acid, methanol, benzyl alcohol, dimethylsulfoxide, N,N-dimethylformamide)	solubility ([1]; pyridine and acetic anhydride)	antifibrotic activity (α-SMA) ([2]; 5 μM alone (FIG. 2C))	antifibrotic effect as single agent (α-SMA) ([2]; hHSC, TGFβ1 1 ng/ml, 48 h, all doses (FIG. 1B, 1C))	NAS score (disease activity) ([3]; 8 weeks (FIG. 4A))	plasma CK18 concentration ([3]; 8 weeks (FIG. 4B))	plasma AST concentration ([3]; 8 weeks (FIG. 4C))	hepatic expression of genes related to inflammation, tissue remodeling and fibrogenesis ([3]; 8 weeks, qPCR (FIG. 5))	fibrosis as compared to placebo [4, 5]	primary outcome (minimum 2-point improvement in NAS with at least 1-point reduction in lobular inflammation or hepatocellular ballooning) [4, 5]	efficacy on NASH-induced fibrosis ([4]; recent phase 2B study)
CCCCOCCOc1ccc(-c2ccc3c(c2)C=C(C(=O)Nc2ccc([S@@+]([O-])Cc4cncn4CCC)cc2)CCCN3CC(C)C)cc1.CS(=O)(=O)O [CVC mesylate, (S)-8-[4-(2-Butoxyethoxy)phenyl]-1-isobutyl-N-[4-[[(1-propyl-1H-imidazol-5-yl)methyl]sulfinyl]phenyl]-1,2,3,4-tetrahydro-1-benzazocine-5-carboxamide monomethanesulfonoate]	sparingly soluble	slightly soluble	sparingly soluble	freely soluble	practically insoluble	practically insoluble	freely soluble	soluble	–	–	–	–	–	–	–	–	–
CCCCOCCOc1ccc(-c2ccc3c(c2)/C=C(/C(=O)Nc2ccc([S@@+]([O-])Cc4cncn4CCC)cc2)CCCN3CC(C)C)cc1 [CVC, (S,E)-8-(4-(2-Butoxyethoxy)phenyl)-1-(2-methylpropyl)-N-(4-(((1-propyl-1H-imidazol-5-yl)methyl)sulfinyl)phenyl)-1,2,3,4-tetrahydrobenzo[b]azocine-5-carboxamide]	–	–	–	–	–	–	–	–	does not show any antifibrotic activity	did not show a significant effect	no effect	no effect	no effect	no effect	decrease of fibrosis in certain proportion of patients	not met	shown efficacy
